# Source: PubChem BioAssay (NCI)
#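 These data come from cells grown in 96-well plates and exposed to compound for 48 hours at five concentrations. The concentration for 50% growth inhibition is given as GI50. TGI denotes the concentration required for complete inhibition of growth.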
# Tests used:
# Experiment in all cases: NCI-60 cell line screen, 48 h
# HCT-116 colon = test system: HCT-116 colon
# MOLT-4 leukemia = test system: MOLT-4 leukemia
# ACHN renal = test system: ACHN renal
# OVCAR-5 ovarian = test system: OVCAR-5 ovarian
# NCI-H226 lung = test system: NCI-H226 lung
# CCRF-CEM leukemia = test system: CCRF-CEM leukemia
# LOX IMVI melanoma = test system: LOX IMVI melanoma
# MDA-MB-435 = test system: MDA-MB-435
# PC-3 prostate = test system: PC-3 prostate
# BT-549 breast = test system: BT-549 breast
Compound,TGI (HCT-116 colon) [µM],TGI (MOLT-4 leukemia) [µM],TGI (ACHN renal) [µM],TGI (OVCAR-5 ovarian) [µM],TGI (NCI-H226 lung) [µM],TGI (CCRF-CEM leukemia) [µM],TGI (LOX IMVI melanoma) [µM],TGI (MDA-MB-435) [µM],TGI (PC-3 prostate) [µM],GI50 (BT-549 breast) [nM],TGI (BT-549 breast) [µM],GI50 (MDA-MB-435) [nM],GI50 (HCT-116 colon) [µM],GI50 (LOX IMVI melanoma) [nM],GI50 (PC-3 prostate) [nM],GI50 (ACHN renal) [nM],GI50 (OVCAR-5 ovarian) [nM],GI50 (NCI-H226 lung) [nM],GI50 (CCRF-CEM leukemia) [nM],GI50 (MOLT-4 leukemia) [nM]
CN(CCCN1C(=O)c2cccc3cc([N+](=O)[O-])cc(c23)C1=O)CCN(C)CCCN1C(=O)c2cccc3cc([N+](=O)[O-])cc(c23)C1=O,> 39.3,> 39.3,> 39.3,> 39.3,> 39.3,> 39.3,–,–,–,–,–,–,–,–,–,–,–,–,–,–
O=[N+]([O-])c1ccc(C2SCc3nc4ccccc4n32)cc1 (stereo not drawn),–,> 100,> 100,> 100,> 100,> 100,> 100,–,–,–,–,–,–,–,–,–,–,–,–,–
C[C@]12CC(C=O)C(=O)C(O)=C1CC[C@@H]1C2CC[C@@]2(C)C1CC[C@]2(C)O (stereo partly drawn),54.3,52,51.2,32.6,39.5,–,24.7,–,–,–,–,–,–,–,–,–,–,–,–,–
COc1c(-c2ccc3c(c2)OCO3)oc2cc(O)cc(O)c2c1=O,> 100,> 100,> 100,> 100,> 100,> 100,> 100,> 100,> 100,–,–,–,–,–,–,–,–,–,–,–
C=CCC(N[C@H](CO)c1ccccc1)c1ccccn1 (stereo partly drawn),> 100,–,> 100,> 100,> 100,> 100,> 100,> 100,> 100,> 100000,> 100,> 100000,> 100,> 100000,> 100000,> 100000,> 100000,> 100000,> 100000,–
COc1ccc2c(CCCc3ccc(Cl)cc3Cl)c3[n+](cc2c1OC)CCc1cc2c(cc1-3)OCO2,–,–,3.15,2.62,–,–,1.44,1.31,1.24,365,1.4,322,–,370,279,1440,1130,–,–,–
COc1cc2c3cc1Oc1c(OC)c(OC)cc4c1[C@@H](Cc1ccc(O)c(c1)Oc1ccc(cc1)C[C@@H]3N(C)CC2)N(C)CC4,21.1,34.2,38.1,> 100,44.8,45.2,34.6,–,–,–,–,–,–,–,–,–,–,–,–,–
O=C(NCCCl)Nc1ccccc1,> 100,> 100,> 100,> 100,> 100,> 100,> 100,> 100,> 100,–,–,–,–,–,–,–,–,–,–,–
COC(=O)C(=O)C(C(C)=O)C(=O)NCc1ccccc1 (stereo not drawn),> 100,> 100,> 100,> 100,> 100,> 100,> 100,–,–,–,–,–,–,–,–,–,–,–,–,–
CCCCCN(CCCCC)C(=O)[C@H](CCC(=O)O)NC(=O)c1cc2ccccc2[nH]1,92.5,64.4,> 100,> 100,> 100,> 100,> 100,–,–,–,–,–,–,–,–,–,–,–,–,–
COC(=O)C12C34C=CC5(CCC6(C=CC1(CC3)O6)C52C(=O)OC)O4 (stereo not drawn),> 100,> 100,> 100,> 100,> 100,> 100,> 100,–,–,–,–,–,–,–,–,–,–,–,–,–
Cc1ccc(-c2c3c(nn2-c2ccc(S(=O)(=O)NC(=O)NC4CCCCC4)cc2)-c2ccccc2C3)cc1,15.9,6.14,29.5,70.3,47.3,–,3.73,41.4,25.3,11400,26.5,19000,3.3,1820,11100,14600,29200,20400,–,1860
CCC[CH2][Sn]([CH2]CCC)([O]C(=O)c1cc(F)ccc1F)[O]C(=O)c1cc(F)ccc1F,2.5,2.01,2.7,3.31,2.92,1.25,1.85,–,–,–,–,–,1.25,581,–,1400,1910,1560,257,347
C=C1C(=O)O[C@H]2[C@H]1CC/C(COC(=O)CCCCCCCC(=O)OC/C1=C/CC[C@@]3(C)O[C@H]3[C@H]3OC(=O)C(=C)[C@@H]3CC1)=C\CC[C@@]1(C)O[C@@H]21,–,11.4,5.51,7.01,6.97,7.49,2.95,7.33,4.62,1590,3.45,2590,–,1480,1960,1850,2480,2630,476,791
O=C(COC(=O)c1cccc2c(=O)c3ccccc3[nH]c12)Nc1ccc(Cl)cc1,> 100,> 100,> 100,–,> 100,> 100,> 100,–,–,–,–,–,–,–,–,–,–,–,–,–
CCCCCCCCC(C)CCCCCCCCC(=O)OCC(COP(=O)([O-])OCC[N+](C)(C)C)OC(=O)CCCCCCCCC(C)CCCCCCCC (stereo not drawn),> 100,> 100,> 100,> 100,> 100,> 100,> 100,–,–,–,–,–,–,–,–,–,–,–,–,–
C[C@]12Cc3conc3C(O)=C1CC[C@@H]1C2CC[C@@]2(C)C1CC[C@]2(C)O (stereo partly drawn),39.3,42.3,89.5,92.2,47.3,46.5,22.7,–,–,–,–,–,–,–,–,–,–,–,–,–
Cc1ccc(C)c(NC(=O)C(=O)C2C(=O)N(c3ccccc3)N=C2N)c1 (stereo not drawn),> 100,> 100,> 100,> 100,> 100,> 100,> 100,–,–,–,–,–,–,–,–,–,–,–,–,–
O=C1NC2(CCCCC2)C2CCCCC=C12 (stereo not drawn),> 100,> 100,> 100,> 100,–,> 100,> 100,–,–,–,–,–,–,–,–,–,–,–,–,–
CCOC(=O)/C(C#N)=C\Sc1ccccc1,59.8,67.3,47.1,58.6,43,> 100,21.4,–,–,–,–,–,–,–,–,–,–,–,–,–
Cn1c2c(c3ccccc3c1=O)C(=O)c1ccccc1-2,> 100,> 100,–,> 100,> 100,> 100,> 100,> 100,> 100,–,> 100,–,–,–,–,–,–,–,–,–
